From ChEMBL document CHEMBL1201862, “PubChem BioAssay data set” (2004)
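96-well plates; 48 h exposure; 5 concentrations. Endpoints by linear interpolation between flanking doses. Not reached: highest tested concentration assigned. Abbreviation: GI50, concentration required for 50% inhibition of growth.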 Active and inactive are the calls of the source. No stated cut-off is given here; in the data, active = GI50 up to about 1.1 µM and inactive = higher.

Assays:
Assay in all cases: NCI anticancer screen, dose series, 48 h
EKVX = test system: EKVX
Malme-3M = test system: Malme-3M
UACC-257 = test system: UACC-257
T47D = test system: T47D
SK-MEL-2 = test system: SK-MEL-2
A549 = test system: A549
MOLT-4 = test system: MOLT-4
SN12C = test system: SN12C
HT-29 = test system: HT-29
TK-10 = test system: TK-10
OVCAR-3 = test system: OVCAR-3
MDA-MB-435 = test system: MDA-MB-435
CCRF-CEM = test system: CCRF-CEM
RXF 393 = test system: RXF 393
HOP-92 = test system: HOP-92
NCI-H23 = test system: NCI-H23
CAKI-1 = test system: CAKI-1
IGROV-1 = test system: IGROV-1
SF-268 = test system: SF-268
SNB-19 = test system: SNB-19
K562 = test system: K562
UACC-62 = test system: UACC-62
BT-549 = test system: BT-549
SW-620 = test system: SW-620
SR = test system: SR
COLO 205 = test system: COLO 205
SK-MEL-5 = test system: SK-MEL-5
HOP-62 = test system: HOP-62
SF-539 = test system: SF-539
PC-3 = test system: PC-3
OVCAR-8 = test system: OVCAR-8
NCI-H460 = test system: NCI-H460
MDA-MB-231 = test system: MDA-MB-231
NCI-H522 = test system: NCI-H522
OVCAR-5 = test system: OVCAR-5
SK-OV-3 = test system: SK-OV-3
DU-145 = test system: DU-145
M14 = test system: M14
HCT-116 = test system: HCT-116
Hs-578T = test system: Hs-578T
OVCAR-4 = test system: OVCAR-4
HL-60 = test system: HL-60
ACHN = test system: ACHN
MCF7 = test system: MCF7
RPMI-8226 = test system: RPMI-8226
LOX IMVI = test system: LOX IMVI
SF-295 = test system: SF-295
U-251 = test system: U-251
KM12 = test system: KM12
NCI/ADR-RES = test system: NCI/ADR-RES
NCI-H226 = test system: NCI-H226
786-0 = test system: 786-0
UO-31 = test system: UO-31
MDA-N = test system: MDA-N
HCT-15 = test system: HCT-15
SNB-75 = test system: SNB-75
SK-MEL-28 = test system: SK-MEL-28
HCC 2998 = test system: HCC 2998

With Cc1ccc(O)c(C2=NNC(c3cccc(Cl)c3)C2)c1 (stereo unspecified) the GI50 (EKVX) was 37 µM (inactive), the GI50 (Malme-3M) was 37.8 µM (inactive) and the GI50 (UACC-257) was 35 µM (inactive). The GI50 (T47D) was 41.4 µM (inactive), the GI50 (SK-MEL-2) was 30 µM (inactive) and the GI50 (A549) was 34.8 µM (inactive). For the same molecule, the GI50 (MOLT-4) was 34 µM (inactive), the GI50 (SN12C) was 37.2 µM (inactive) and the GI50 (HT-29) was 54.8 µM (inactive). The GI50 (TK-10) was 58.3 µM (inactive), the GI50 (OVCAR-3) was 51.5 µM (inactive) and the GI50 (MDA-MB-435) was 19 µM (inactive). The GI50 (CCRF-CEM) was 31.8 µM (inactive), the GI50 (RXF 393) was 19.4 µM (inactive) and the GI50 (HOP-92) was 18.5 µM (inactive). For the same molecule, the GI50 (NCI-H23) was 50.1 µM (inactive), the GI50 (CAKI-1) was 36.8 µM (inactive) and the GI50 (IGROV-1) was 5.69 µM (inactive). For the same molecule, the GI50 (SF-268) was 32.9 µM (inactive), the GI50 (SNB-19) was 14.4 µM (inactive) and the GI50 (K562) was 36.4 µM (inactive). The GI50 (UACC-62) was 39.7 µM (inactive), the GI50 (BT-549) was > 100 µM (inactive) and the GI50 (SW-620) was 48 µM (inactive). For the same molecule, the GI50 (SR) was 28.9 µM (inactive), the GI50 (COLO 205) was > 100 µM (inactive) and the GI50 (SK-MEL-5) was 54 µM (inactive). The GI50 (HOP-62) was 79.8 µM (inactive), the GI50 (SF-539) was 66.5 µM (inactive) and the GI50 (PC-3) was 32.3 µM (inactive). The GI50 (OVCAR-8) was 56.2 µM (inactive), the GI50 (NCI-H460) was 19.6 µM (inactive) and the GI50 (MDA-MB-231) was 61.5 µM (inactive). For the same molecule, the GI50 (NCI-H522) was 16 µM (inactive), the GI50 (OVCAR-5) was > 100 µM (inactive) and the GI50 (SK-OV-3) was 35.9 µM (inactive). The GI50 (DU-145) was 86.1 µM (inactive), the GI50 (M14) was 87.5 µM (inactive) and the GI50 (HCT-116) was 34 µM (inactive). The GI50 (Hs-578T) was 30.5 µM (inactive), the GI50 (OVCAR-4) was 24.4 µM (inactive) and the GI50 (HL-60) was 41.7 µM (inactive). The GI50 (ACHN) was 30.1 µM (inactive), the GI50 (MCF7) was 23.2 µM (inactive) and the GI50 (RPMI-8226) was 25.1 µM (inactive). The GI50 (LOX IMVI) was 31.6 µM (inactive), the GI50 (SF-295) was 66.4 µM (inactive) and the GI50 (U-251) was 33.9 µM (inactive). For the same molecule, the GI50 (KM12) was 20.6 µM (inactive), the GI50 (NCI/ADR-RES) was 34.5 µM (inactive) and the GI50 (NCI-H226) was 57.1 µM (inactive). The GI50 (786-0) was 72.8 µM (inactive), the GI50 (UO-31) was 28.1 µM (inactive) and the GI50 (MDA-N) was 28.3 µM (inactive). It also gave a GI50 (HCT-15) of 8.09 µM.

In the case of O=C(O)CNC(=O)c1ccc2cc(C(=O)N3CC(CCl)c4ccc([N+](=O)[O-])cc43)[nH]c2c1 (stereo unspecified), the GI50 (EKVX) is reported as > 100 µM (inactive), the GI50 (UACC-257) is reported as > 100 µM (inactive) and the GI50 (T47D) is reported as > 100 µM (inactive). The GI50 (SK-MEL-2) was > 100 µM (inactive), the GI50 (A549) was > 100 µM (inactive) and the GI50 (MOLT-4) was > 100 µM (inactive). The GI50 (SN12C) was > 100 µM (inactive), the GI50 (HT-29) was > 100 µM (inactive) and the GI50 (TK-10) was > 100 µM (inactive). For the same molecule, the GI50 (OVCAR-3) was > 100 µM (inactive), the GI50 (MDA-MB-435) was > 100 µM (inactive) and the GI50 (CCRF-CEM) was > 100 µM (inactive). For the same molecule, the GI50 (RXF 393) was > 100 µM (inactive), the GI50 (HOP-92) was > 100 µM (inactive) and the GI50 (NCI-H23) was > 100 µM (inactive). The GI50 (CAKI-1) was > 100 µM (inactive), the GI50 (IGROV-1) was > 100 µM (inactive) and the GI50 (SF-268) was > 100 µM (inactive). For the same molecule, the GI50 (SNB-19) was > 100 µM (inactive), the GI50 (UACC-62) was > 100 µM (inactive) and the GI50 (BT-549) was > 100 µM (inactive). The GI50 (SW-620) was > 100 µM (inactive), the GI50 (SR) was > 100 µM (inactive) and the GI50 (COLO 205) was > 100 µM (inactive). The GI50 (SK-MEL-5) was > 100 µM (inactive), the GI50 (SF-539) was > 100 µM (inactive) and the GI50 (PC-3) was > 100 µM (inactive). For the same molecule, the GI50 (OVCAR-8) was > 100 µM (inactive), the GI50 (NCI-H460) was > 100 µM (inactive) and the GI50 (MDA-MB-231) was > 100 µM (inactive). For the same molecule, the GI50 (NCI-H522) was > 100 µM (inactive), the GI50 (OVCAR-5) was > 100 µM (inactive) and the GI50 (SK-OV-3) was > 100 µM (inactive). The GI50 (DU-145) was > 100 µM (inactive), the GI50 (M14) was > 100 µM (inactive) and the GI50 (HCT-116) was > 100 µM (inactive). The GI50 (Hs-578T) was > 100 µM (inactive), the GI50 (OVCAR-4) was > 100 µM (inactive) and the GI50 (HL-60) was > 100 µM (inactive). The GI50 (ACHN) was > 100 µM (inactive), the GI50 (MCF7) was > 100 µM (inactive) and the GI50 (RPMI-8226) was > 100 µM (inactive). The GI50 (SNB-75) was > 100 µM (inactive), the GI50 (LOX IMVI) was > 100 µM (inactive) and the GI50 (SF-295) was > 100 µM (inactive). For the same molecule, the GI50 (U-251) was > 100 µM (inactive), the GI50 (KM12) was > 100 µM (inactive) and the GI50 (NCI/ADR-RES) was > 100 µM (inactive). The GI50 (NCI-H226) was > 100 µM (inactive), the GI50 (786-0) was > 100 µM (inactive) and the GI50 (UO-31) was > 100 µM (inactive). The GI50 (MDA-N) was > 100 µM (inactive) and the GI50 (HCT-15) was greater than 100 µM.

FC1=C2CCCCCC2SC1(F)F (stereo unspecified) was tested, and the GI50 (EKVX) was > 100 µM (inactive), the GI50 (Malme-3M) was 21.9 µM (inactive) and the GI50 (UACC-257) was 99.3 µM (inactive). For the same molecule, the GI50 (T47D) was > 100 µM (inactive), the GI50 (SK-MEL-2) was > 100 µM (inactive) and the GI50 (A549) was > 100 µM (inactive). For the same molecule, the GI50 (MOLT-4) was 16.4 µM (inactive), the GI50 (HT-29) was 43.6 µM (inactive) and the GI50 (TK-10) was 36.6 µM (inactive). For the same molecule, the GI50 (OVCAR-3) was > 100 µM (inactive), the GI50 (MDA-MB-435) was 26.4 µM (inactive) and the GI50 (CCRF-CEM) was 3.36 µM (inactive). For the same molecule, the GI50 (RXF 393) was 13.3 µM (inactive), the GI50 (HOP-92) was 7.18 µM (inactive) and the GI50 (NCI-H23) was > 100 µM (inactive). For the same molecule, the GI50 (CAKI-1) was 35.6 µM (inactive), the GI50 (IGROV-1) was > 100 µM (inactive) and the GI50 (SF-268) was > 100 µM (inactive). The GI50 (SNB-19) was > 100 µM (inactive), the GI50 (K562) was 20.8 µM (inactive) and the GI50 (UACC-62) was > 100 µM (inactive). For the same molecule, the GI50 (BT-549) was > 100 µM (inactive), the GI50 (SW-620) was 14.8 µM (inactive) and the GI50 (SR) was 20.1 µM (inactive). For the same molecule, the GI50 (COLO 205) was 19.1 µM (inactive), the GI50 (SK-MEL-5) was > 100 µM (inactive) and the GI50 (PC-3) was > 100 µM (inactive). For the same molecule, the GI50 (OVCAR-8) was 70.3 µM (inactive), the GI50 (MDA-MB-231) was 78.9 µM (inactive) and the GI50 (NCI-H522) was 15.6 µM (inactive). For the same molecule, the GI50 (OVCAR-5) was > 100 µM (inactive), the GI50 (SK-MEL-28) was > 100 µM (inactive) and the GI50 (SK-OV-3) was > 100 µM (inactive). For the same molecule, the GI50 (DU-145) was > 100 µM (inactive), the GI50 (M14) was 30.7 µM (inactive) and the GI50 (HCT-116) was 37.8 µM (inactive). For the same molecule, the GI50 (Hs-578T) was > 100 µM (inactive), the GI50 (HCC 2998) was > 100 µM (inactive) and the GI50 (OVCAR-4) was > 100 µM (inactive). The GI50 (HL-60) was 12.7 µM (inactive), the GI50 (ACHN) was 29.8 µM (inactive) and the GI50 (MCF7) was 71.9 µM (inactive). For the same molecule, the GI50 (RPMI-8226) was 28.6 µM (inactive), the GI50 (SNB-75) was > 100 µM (inactive) and the GI50 (LOX IMVI) was 15.7 µM (inactive). The GI50 (SF-295) was > 100 µM (inactive), the GI50 (KM12) was > 100 µM (inactive) and the GI50 (NCI/ADR-RES) was > 100 µM (inactive). The GI50 (NCI-H226) was > 100 µM (inactive), the GI50 (786-0) was > 100 µM (inactive) and the GI50 (UO-31) was > 100 µM (inactive). For the same molecule, the GI50 (MDA-N) was 42.2 µM (inactive) and the GI50 (HCT-15) was 34.4 µM.
